This experiment relates to p53 in MCF-7 breast cancer cells. In words: Down modulation of endogenous p53 in MCF-7 cells by dox-inducible siRNA lentivectors (Western blot). To be noted: dually transduced MCF-7 cells, 5 days in dox, FIG. 7B. The experiment is classed as cell-based. The procedure:
To analyze the regulation of GFP a Hela cell clone carrying a single copy of the WPXLGFP provirus (Hela-GFP) was used. For transduction, Hela-GFP, MCF-7 or Hela cells were plated on 24-well plate (20×10^4 cells/well) and after 16 hrs medium containing recombinant lentivectors was added. Following 16 hrs of incubation the cells were washed, split and doxycycline was added to half of the transduced cells at a final concentration of 5 μg/ml. Five days later the cells were harvested and analyzed by FACS.
Cell extracts were prepared in RIPA lysis buffer (25 mM Tris pH 7.5, 1% Triton X-100, 0.5% sodium deoxycholate, 5 mM EDTA, 150 mM NaCl) containing a cocktail of protease inhibitors (Sigma). The protein samples (10 μg) were separated on 4-20% gradient PAGE-SDS gel, electroblotted to polyvinylidene fluoride membranes (Perkin Elmer) and exposed to antibodies against p53 (Santa Cruz Biotechnology), Lamin A/C (Santa Cruz Biotechnology), GFP (Clontech) and actin (Calbiochem). Antibodies conjugated with horseradish peroxidase (Amersham) and enhanced chemiluminescence (ECL; Amersham) was used for detection.
(In general: Immunoblotting shows a protein as a band on a membrane.)

Each structure is given as a SMILES string.

On to `C[C@H]1c2cccc(O)c2C(=O)C2=C(O)[C@]3(O)C(=O)C(C(N)=O)=C(O)[C@@H](N(C)C)[C@@H]3[C@@H](O)[C@@H]21` [doxycycline], for which the “dox concentration at which full-blown p53 suppression was achieved” value came out at 0.25 µg/mL and the “dox concentration at which p53 downregulation was already apparent” value came out at 0.004 µg/mL.
